Entries after “also recorded” stand apart in the source; their conditions may differ. Read-outs that look alike come from different tables or passages of the source. Marks after values point to notes of the source that are not given here.
What was measured:
UACC-257 [1] = details: mouse, in vivo, ip, 90 mg/kg/day; cited from earlier work
M14 = details: mouse, in vivo, ip, 90 mg/kg/day; cited from earlier work
SK-MEL-5 [2] = details: mouse, in vivo, ip, 40 mg/kg/day; cited from earlier work
SK-MEL-2 [3] = details: mouse, in vivo, ip, 90 mg/kg/day; cited from earlier work
LOX-IMVI [4] = details: mouse, in vivo, ip, cited from earlier work
MALME-3M [5] = details: mouse, in vivo, ip, 90 mg/kg/day; cited from earlier work
melanoma xenografts = details: mouse, in vivo, ip; cited from earlier work
UACC-62 [6] = details: mouse, in vivo, ip, 90 mg/kg/day; cited from earlier work
MAPK (ERK) = assay: Active phospho-MAPK immunoblot in normal melanocytes; type: cell-based, human; details: 72 hours with PD98059 (and U0126) or 96 hours with LF
Protocol: (§1) Western blot analysis was performed as described previously (Koo et al., 1999, supra). The primary antibodies used were anti-active MAPK from Promega, and anti-ERK1 (K-23) and anti-ERK2 (C-14) from Santa Cruz Biotechnology.

M14-MEL = type: cell-based, human; details: for % Apoptosis: M14-MEL Melanoma Cells, treatment for 72 hours; for Apoptosis (%) Experiment I: M14-MEL, 72 h, average of four replicates minus background (PA alone or DMSO), LF 0.1 μg/ml with PA, PD98059 20 μM every 24 h, U0126 10 μM single dose
LOX-IMVI [7] = type: cell-based, human; details: 72 h, average of four replicates minus background (PA alone or DMSO), LF 0.1 μg/ml with PA, PD98059 20 μM every 24 h, U0126 10 μM single dose
MDA-MB-435 and MDA-N = assay: NCI-ADS growth inhibition, breast carcinoma lines; type: cell-based, human; details: NCI-ADS breast carcinoma lines MDA-MB-435 and MDA-N
MALME-3M [8] = type: cell-based, human; details: 72 h, average of four replicates minus background (PA alone or DMSO), LF 0.1 μg/ml with PA, PD98059 20 μM every 24 h, U0126 10 μM single dose
SK-MEL-5 [9] = type: cell-based, human; details: 72 h, average of four replicates minus background (PA alone or DMSO), LF 0.1 μg/ml with PA, PD98059 20 μM every 24 h, U0126 10 μM single dose
ERK1 and 2 = assay: Active phospho-MAPK immunoblot in MALME-3M cells; type: cell-based, human
Protocol: as §1

SK-MEL-28 = type: cell-based, human; details: 72 h, average of four replicates minus background (PA alone or DMSO), LF 0.1 μg/ml with PA, PD98059 20 μM every 24 h, U0126 10 μM single dose
MALME-3M [10] = assay: Cell cycle profile by flow cytometry; type: cell-based, human; details: within 24 hours of treatment
Protocol: (§2) Cell cycle profiles and DNA content were analyzed by flow cytometry, as previously described (Koo, H.-M. et al. Canc Res 59:6057-6062 (1999)). Total cells including floating cells were harvested, washed in cold PBS and fixed in cold 70% ethanol overnight. The fixed cells were rehydrated in PBS containing 1% fetal bovine serum, washed in PBS, incubated with DNase-free RNase at room temperature for 30 min, and then stained with 50 μg/ml propidium iodide overnight at 4° C. in the dark. The stained samples were analyzed in a FACSCalibur (Becton Dickinson Biosciences) for DNA content and cell cycle profiles.
In most cell types, activation of the MAPK pathway is required for progression through the restriction point in G1 phase of the cell cycle (reviewed in Roussel et al., supra).

UACC-257 [11] = type: cell-based, human; details: 72 h, average of four replicates minus background (PA alone or DMSO), LF 0.1 μg/ml with PA, PD98059 20 μM every 24 h, U0126 10 μM single dose
UACC-62 [12] = type: cell-based, human; details: 72 h, average of four replicates minus background (PA alone or DMSO), LF 0.1 μg/ml with PA, PD98059 20 μM every 24 h, U0126 10 μM single dose
[13] = tested on: normal human melanocytes (NHEM); assay: Cell cycle profile by flow cytometry; type: cell-based; details: 72 hours with PD98059 (and U0126) or 96 hours with LF
Protocol: as §2

[14] = tested on: normal human melanocytes (NHEM); type: cell-based; details: for % Apoptosis: Normal Melanocytes, treatment for 72 hours; for apoptosis (in words): normal melanocytes
SK-MEL-2 [15] = type: cell-based, human; details: 72 h, average of four replicates minus background (PA alone or DMSO), LF 0.1 μg/ml with PA, PD98059 20 μM every 24 h, U0126 10 μM single dose
MAPK (ERK1/2) = assay: Western blot with phospho-specific anti-ERK antibody in M14-MEL cells; type: cell-based, human; details: M14-MEL melanoma cells
Protocol: as §1

[16] = 72 hours with PD98059 (and U0126) or 96 hours with LF

COc1cccc2c1[C@H](CO)N1[C@@H](C#N)[C@@H]3C[C@@H](C(=O)O)[C@H]([C@@H]1C2)N3C [DX-52-1]
Growth delay: %(T − C)/C (UACC-257 [1]): 35% | Optimal % T/C (UACC-257 [1]): 12 (27) % | Regressions Complete (UACC-257 [1]): 0/6 | Regressions Partial (UACC-257 [1]): 0/6 | day on which the optimal (minimum) T/C was attained (UACC-257 [1]): 12 (27) | Growth delay: %(T − C)/C (M14): 56% | Optimal % T/C (M14): 19 (26) % | Regressions Complete (M14): 0/6 | Regressions Partial (M14): 0/6 | day on which the optimal (minimum) T/C was attained (M14): 19 (26) | Growth delay: %(T − C)/C (SK-MEL-5 [2]): 27% | Optimal % T/C (SK-MEL-5 [2]): 49 (33) % | Regressions Complete (SK-MEL-5 [2]): 0/6 | Regressions Partial (SK-MEL-5 [2]): 0/6 | day on which the optimal (minimum) T/C was attained (SK-MEL-5 [2]): 49 (33) | Growth delay: %(T − C)/C (SK-MEL-2 [3]): 118% | Optimal % T/C (SK-MEL-2 [3]): 10 (32) % | Regressions Complete (SK-MEL-2 [3]): 2/6 | Regressions Partial (SK-MEL-2 [3]): 0/6 | day on which the optimal (minimum) T/C was attained (SK-MEL-2 [3]): 10 (32) | Growth delay: %(T − C)/C (LOX-IMVI [4]; 60 mg/kg/day): 389% | Optimal % T/C (LOX-IMVI [4]; 60 mg/kg/day): −100^b % | Regressions Complete (LOX-IMVI [4]; 60 mg/kg/day): 4/6 | Regressions Partial (LOX-IMVI [4]; 60 mg/kg/day): 016 | Growth delay: %(T − C)/C (LOX-IMVI [4]; 90 mg/kg/day): 181% | Optimal % T/C (LOX-IMVI [4]; 90 mg/kg/day): −54% | Regressions Complete (LOX-IMVI [4]; 90 mg/kg/day): 2/10 | Regressions Partial (LOX-IMVI [4]; 90 mg/kg/day): 3/10 | Growth delay: %(T − C)/C (MALME-3M [5]): 4% | Optimal % T/C (MALME-3M [5]): 64 (72) % | Regressions Complete (MALME-3M [5]): 0/6 | Regressions Partial (MALME-3M [5]): 0/6 | day on which the optimal (minimum) T/C was attained (MALME-3M [5]): 64 (72) | melanoma xenografts with statistically significant antitumor activity (melanoma xenografts): 5/7 | Growth delay: %(T − C)/C (UACC-62 [6]): 185% | Optimal % T/C (UACC-62 [6]): 18 (34) % | Regressions Complete (UACC-62 [6]): 0/7 | Regressions Partial (UACC-62 [6]): 0/7 | day on which the optimal (minimum) T/C was attained (UACC-62 [6]): 18 (34)

COc1cccc(-c2cc(=O)c3ccccc3o2)c1N [PD98059]
MAPK (ERK) activation (MAPK (ERK)): inhibited | % Apoptosis (M14-MEL; 20 μM): 38.9% | Apoptosis (%) Experiment I (M14-MEL): 53.0% | Apoptosis (%) Experiment I (LOX-IMVI [7]): 3.6% | sensitivity to growth inhibition (MDA-MB-435 and MDA-N): as sensitive as melanoma cell lines | Apoptosis (%) Experiment I (MALME-3M [8]): 47.9% | Apoptosis (%) Experiment I (SK-MEL-5 [9]): 9.1% | activation of ERK1 and 2 (ERK1 and 2): inhibited | Apoptosis (%) Experiment I (SK-MEL-28): 2.5% | cell cycle progression (MALME-3M [10]): noticeably blocked in the G1 phase | Apoptosis (%) Experiment I (UACC-257 [11]): 19.7% | Apoptosis (%) Experiment I (UACC-62 [12]): 30.5% | cell cycle response [13]: induced G1 arrest | % Apoptosis ([14]; 20 μM): 0% | apoptosis (in words) [14, 16]: no apoptosis was observed | apoptosis (in words) ([14]; PD98059 for 96 hours): apoptosis was not detected | Apoptosis (%) Experiment I (SK-MEL-2 [15]): 23.4%

O=C(NOCC1CC1)c1ccc(F)c(F)c1Nc1ccc(I)cc1Cl [PD184352]
% Apoptosis (M14-MEL; 1 μM): 24.5% | % Apoptosis (M14-MEL; 5 μM): 37.3% | % Apoptosis (M14-MEL; 10 μM): 48.8% | % Apoptosis (M14-MEL; 20 μM): 71.0% | potency relative to PD98059 (M14-MEL; apoptosis in M14-MEL, 72 hours): more potent, possibly by several fold | selectivity melanoma cells vs normal human melanocytes (M14-MEL; apoptosis, 72 hours): selectively cytotoxic to human melanoma cells | activation of MAPK (ERK1/2) (MAPK (ERK1/2)): completely blocked | % Apoptosis ([14]; 2 μM): 0.3%

N#CC(=C(/N)Sc1ccccc1N)/C(C#N)=C(\N)Sc1ccccc1N [U0126]
MAPK (ERK) activation (MAPK (ERK)): inhibited | Apoptosis (%) Experiment I (M14-MEL): 36.0% | Apoptosis (%) Experiment I (LOX-IMVI [7]): 2.3% | Apoptosis (%) Experiment I (MALME-3M [8]): 48.3% | Apoptosis (%) Experiment I (SK-MEL-5 [9]): 1.9% | Apoptosis (%) Experiment I (SK-MEL-28): 1.1% | Apoptosis (%) Experiment I (UACC-257 [11]): 4.7% | Apoptosis (%) Experiment I (UACC-62 [12]): 8.3% | cell cycle response [13]: induced G1 arrest | apoptosis (in words) [14, 16]: no apoptosis was observed; also recorded: did not induce apoptosis | Apoptosis (%) Experiment I (SK-MEL-2 [15]): 35.4%

— patent US7612035B2, “Inhibition of mitogen-activated protein kinase (MAPK) pathway: a selective therapeutic strategy against melanoma” (Van Andel Research Institute, priority 2000, dated 2009)
